Test results reported in ChEMBL document CHEMBL3784917, “Recent Progress in Histone Demethylase Inhibitors” (J Med Chem, 2016).

Legend:
[1] = target: T1, Lysine-specific demethylase 5C (Homo sapiens, UniProt P41229); assay: Inhibition of KDM5C (unknown origin) preincubated for 15 mins followed by histone substrate addition measured after 1 hr by alphascreen assay
[2] = target: T2, Lysine-specific demethylase 6B (Homo sapiens, UniProt O15054); assay: Inhibition of KDM6B (unknown origin) preincubated for 15 mins followed by histone substrate addition measured after 1 hr by alphascreen assay
T2 sequence (O15054 whole entry): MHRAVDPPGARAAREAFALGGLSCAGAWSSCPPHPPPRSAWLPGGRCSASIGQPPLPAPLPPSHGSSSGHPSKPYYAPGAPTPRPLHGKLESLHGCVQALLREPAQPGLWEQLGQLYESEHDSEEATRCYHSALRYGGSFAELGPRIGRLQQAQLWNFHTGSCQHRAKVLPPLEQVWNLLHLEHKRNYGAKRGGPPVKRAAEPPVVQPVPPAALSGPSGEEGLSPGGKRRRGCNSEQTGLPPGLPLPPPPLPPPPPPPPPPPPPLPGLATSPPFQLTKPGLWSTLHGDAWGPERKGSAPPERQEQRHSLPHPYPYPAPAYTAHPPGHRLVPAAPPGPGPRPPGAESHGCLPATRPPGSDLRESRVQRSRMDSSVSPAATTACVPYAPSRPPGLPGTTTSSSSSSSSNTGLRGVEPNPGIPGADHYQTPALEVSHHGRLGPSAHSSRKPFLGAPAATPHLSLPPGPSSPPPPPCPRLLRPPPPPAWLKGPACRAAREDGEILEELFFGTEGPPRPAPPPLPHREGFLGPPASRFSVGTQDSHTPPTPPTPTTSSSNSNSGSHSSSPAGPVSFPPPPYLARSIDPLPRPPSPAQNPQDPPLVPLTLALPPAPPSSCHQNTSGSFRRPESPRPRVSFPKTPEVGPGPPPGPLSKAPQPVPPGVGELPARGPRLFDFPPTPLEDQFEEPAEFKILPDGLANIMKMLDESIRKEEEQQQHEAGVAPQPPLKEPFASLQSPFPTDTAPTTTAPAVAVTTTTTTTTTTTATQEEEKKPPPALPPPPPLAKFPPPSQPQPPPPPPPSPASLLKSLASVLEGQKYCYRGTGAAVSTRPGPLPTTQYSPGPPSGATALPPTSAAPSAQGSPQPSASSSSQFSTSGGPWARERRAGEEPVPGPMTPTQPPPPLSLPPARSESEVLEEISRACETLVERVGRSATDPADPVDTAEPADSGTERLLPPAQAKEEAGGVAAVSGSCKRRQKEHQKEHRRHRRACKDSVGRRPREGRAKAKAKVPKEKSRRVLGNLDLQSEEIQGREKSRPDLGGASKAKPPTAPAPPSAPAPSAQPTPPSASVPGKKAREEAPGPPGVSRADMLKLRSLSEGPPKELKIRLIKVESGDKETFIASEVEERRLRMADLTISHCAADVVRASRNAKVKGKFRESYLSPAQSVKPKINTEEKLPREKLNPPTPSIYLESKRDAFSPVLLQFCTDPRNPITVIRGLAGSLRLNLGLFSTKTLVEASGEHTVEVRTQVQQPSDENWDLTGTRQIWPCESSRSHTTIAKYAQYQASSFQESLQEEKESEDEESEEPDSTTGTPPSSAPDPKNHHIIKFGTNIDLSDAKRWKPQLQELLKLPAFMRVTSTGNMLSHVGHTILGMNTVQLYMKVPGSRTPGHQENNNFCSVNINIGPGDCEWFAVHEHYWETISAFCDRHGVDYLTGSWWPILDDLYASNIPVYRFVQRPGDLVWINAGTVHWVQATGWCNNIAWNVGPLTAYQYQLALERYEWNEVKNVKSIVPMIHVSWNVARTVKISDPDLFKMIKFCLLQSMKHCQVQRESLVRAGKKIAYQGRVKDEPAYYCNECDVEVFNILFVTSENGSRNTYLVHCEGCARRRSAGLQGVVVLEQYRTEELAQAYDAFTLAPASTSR

[3] = Inhibition of FIH (unknown origin) using ankyrin peptide substrate preincubated for 5 mins followed by substrate addition measured after 5 mins MALDI-TOF mass spectrometric analysis; design: species or system Homo sapiens
[4] = target: T3, Lysine-specific demethylase 4C (Homo sapiens, UniProt Q9H3R0); assay: Inhibition of KDM4C (unknown origin) using H3K9me3 as substrate after 24 hrs by alphascreen assay
T3 sequence (Q9H3R0 whole entry): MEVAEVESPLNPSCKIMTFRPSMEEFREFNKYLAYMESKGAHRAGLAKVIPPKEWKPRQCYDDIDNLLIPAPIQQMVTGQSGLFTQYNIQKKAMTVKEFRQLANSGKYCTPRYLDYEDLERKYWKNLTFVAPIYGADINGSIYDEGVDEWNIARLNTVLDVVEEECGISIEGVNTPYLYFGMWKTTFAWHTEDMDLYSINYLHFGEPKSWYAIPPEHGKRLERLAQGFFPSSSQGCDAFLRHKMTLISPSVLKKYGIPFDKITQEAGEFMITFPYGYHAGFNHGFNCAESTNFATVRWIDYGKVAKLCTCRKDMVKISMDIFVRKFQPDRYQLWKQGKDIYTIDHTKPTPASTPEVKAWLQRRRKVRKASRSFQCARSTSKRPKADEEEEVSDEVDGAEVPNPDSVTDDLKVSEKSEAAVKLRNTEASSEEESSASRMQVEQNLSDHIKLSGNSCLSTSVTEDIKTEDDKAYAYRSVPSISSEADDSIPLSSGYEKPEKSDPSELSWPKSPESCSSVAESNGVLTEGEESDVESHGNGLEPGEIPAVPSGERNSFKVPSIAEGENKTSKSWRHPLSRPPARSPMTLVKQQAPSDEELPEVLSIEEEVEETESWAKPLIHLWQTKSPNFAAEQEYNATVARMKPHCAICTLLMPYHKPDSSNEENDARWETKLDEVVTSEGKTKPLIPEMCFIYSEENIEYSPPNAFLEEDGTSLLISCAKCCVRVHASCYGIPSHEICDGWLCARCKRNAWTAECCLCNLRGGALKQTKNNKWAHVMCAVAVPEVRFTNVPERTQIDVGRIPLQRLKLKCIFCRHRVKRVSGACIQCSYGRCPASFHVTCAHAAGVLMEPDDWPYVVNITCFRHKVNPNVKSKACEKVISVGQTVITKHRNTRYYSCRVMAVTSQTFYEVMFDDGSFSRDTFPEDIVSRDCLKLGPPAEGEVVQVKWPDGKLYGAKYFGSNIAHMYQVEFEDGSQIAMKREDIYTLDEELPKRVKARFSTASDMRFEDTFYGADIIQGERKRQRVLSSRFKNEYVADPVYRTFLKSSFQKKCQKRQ

[5] = target: T1, Lysine-specific demethylase 5C; assay: Inhibition of KDM5C (unknown origin) after 24 hrs by alphascreen assay
[6] = target: T2, Lysine-specific demethylase 6B; assay: Inhibition of KDM6B (unknown origin) after 24 hrs by alphascreen assay
Egl nine homolog 1 = Egl nine homolog 1 (Homo sapiens, UniProt Q9GZT9); assay: Inhibition of PHD2 catalytic domain (unknown origin) after 24 hrs by alphascreen assay
[7] = Antiproliferative activity against human KMS-12-BM cells assessed as reduction in cell viability after 120 hrs by ATPlite assay; format: functional, cell-based
[8] = Antiproliferative activity against human MM1S cells assessed as reduction in cell viability after 120 hrs by ATPlite assay; format: functional, cell-based; conditions: MM1.S
[9] = target: Lysine-specific demethylase 5B (Homo sapiens, UniProt Q9UGL1); assay: Inhibition of KDM5B in human U2OS cells assessed as reduction in demethylation of H3K4me3 after 20 hrs by Hoechst 33342 staining based immunofluorescence assay; format: cell-based
Chain of Lysine-specific demethylase 5B (Q9UGL1 whole entry): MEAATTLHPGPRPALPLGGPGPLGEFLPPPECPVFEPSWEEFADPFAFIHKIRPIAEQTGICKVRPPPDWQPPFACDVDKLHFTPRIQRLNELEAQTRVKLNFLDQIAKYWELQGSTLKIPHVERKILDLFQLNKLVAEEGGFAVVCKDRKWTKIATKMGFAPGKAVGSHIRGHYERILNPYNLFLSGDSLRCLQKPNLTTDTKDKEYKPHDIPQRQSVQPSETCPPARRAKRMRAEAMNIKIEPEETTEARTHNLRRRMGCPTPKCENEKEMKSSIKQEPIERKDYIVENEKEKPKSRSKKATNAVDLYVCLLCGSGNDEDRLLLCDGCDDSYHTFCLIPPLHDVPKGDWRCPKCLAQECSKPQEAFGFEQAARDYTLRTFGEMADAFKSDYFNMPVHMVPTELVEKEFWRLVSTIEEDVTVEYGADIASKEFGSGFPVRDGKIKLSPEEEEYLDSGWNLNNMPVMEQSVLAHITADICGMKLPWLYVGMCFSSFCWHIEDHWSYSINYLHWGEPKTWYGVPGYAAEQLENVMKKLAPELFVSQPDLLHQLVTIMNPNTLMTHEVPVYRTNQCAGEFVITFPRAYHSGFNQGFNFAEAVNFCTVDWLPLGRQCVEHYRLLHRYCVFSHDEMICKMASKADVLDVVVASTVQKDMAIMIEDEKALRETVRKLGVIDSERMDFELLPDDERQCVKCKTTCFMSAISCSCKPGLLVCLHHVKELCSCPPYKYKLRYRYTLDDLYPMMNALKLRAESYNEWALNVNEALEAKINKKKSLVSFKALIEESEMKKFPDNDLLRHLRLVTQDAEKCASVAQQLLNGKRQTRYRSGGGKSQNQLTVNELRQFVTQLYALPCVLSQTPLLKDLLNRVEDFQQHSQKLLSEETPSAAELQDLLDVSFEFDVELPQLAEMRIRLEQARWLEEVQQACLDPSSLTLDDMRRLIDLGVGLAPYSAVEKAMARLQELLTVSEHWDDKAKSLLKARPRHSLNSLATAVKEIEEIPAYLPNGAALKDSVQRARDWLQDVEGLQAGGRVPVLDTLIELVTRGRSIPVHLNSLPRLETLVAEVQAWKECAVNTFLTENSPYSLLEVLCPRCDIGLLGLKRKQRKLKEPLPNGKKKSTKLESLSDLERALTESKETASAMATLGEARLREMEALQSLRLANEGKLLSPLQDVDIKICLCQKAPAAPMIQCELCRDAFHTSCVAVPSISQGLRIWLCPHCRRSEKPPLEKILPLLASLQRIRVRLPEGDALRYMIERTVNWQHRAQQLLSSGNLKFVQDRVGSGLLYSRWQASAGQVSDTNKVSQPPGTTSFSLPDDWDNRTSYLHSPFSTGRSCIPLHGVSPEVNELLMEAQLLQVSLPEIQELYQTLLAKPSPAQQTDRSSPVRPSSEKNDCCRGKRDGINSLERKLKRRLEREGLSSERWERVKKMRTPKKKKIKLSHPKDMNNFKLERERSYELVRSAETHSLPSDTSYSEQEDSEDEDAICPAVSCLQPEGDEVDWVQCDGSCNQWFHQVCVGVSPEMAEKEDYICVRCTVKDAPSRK

T1 sequence (P41229 whole entry): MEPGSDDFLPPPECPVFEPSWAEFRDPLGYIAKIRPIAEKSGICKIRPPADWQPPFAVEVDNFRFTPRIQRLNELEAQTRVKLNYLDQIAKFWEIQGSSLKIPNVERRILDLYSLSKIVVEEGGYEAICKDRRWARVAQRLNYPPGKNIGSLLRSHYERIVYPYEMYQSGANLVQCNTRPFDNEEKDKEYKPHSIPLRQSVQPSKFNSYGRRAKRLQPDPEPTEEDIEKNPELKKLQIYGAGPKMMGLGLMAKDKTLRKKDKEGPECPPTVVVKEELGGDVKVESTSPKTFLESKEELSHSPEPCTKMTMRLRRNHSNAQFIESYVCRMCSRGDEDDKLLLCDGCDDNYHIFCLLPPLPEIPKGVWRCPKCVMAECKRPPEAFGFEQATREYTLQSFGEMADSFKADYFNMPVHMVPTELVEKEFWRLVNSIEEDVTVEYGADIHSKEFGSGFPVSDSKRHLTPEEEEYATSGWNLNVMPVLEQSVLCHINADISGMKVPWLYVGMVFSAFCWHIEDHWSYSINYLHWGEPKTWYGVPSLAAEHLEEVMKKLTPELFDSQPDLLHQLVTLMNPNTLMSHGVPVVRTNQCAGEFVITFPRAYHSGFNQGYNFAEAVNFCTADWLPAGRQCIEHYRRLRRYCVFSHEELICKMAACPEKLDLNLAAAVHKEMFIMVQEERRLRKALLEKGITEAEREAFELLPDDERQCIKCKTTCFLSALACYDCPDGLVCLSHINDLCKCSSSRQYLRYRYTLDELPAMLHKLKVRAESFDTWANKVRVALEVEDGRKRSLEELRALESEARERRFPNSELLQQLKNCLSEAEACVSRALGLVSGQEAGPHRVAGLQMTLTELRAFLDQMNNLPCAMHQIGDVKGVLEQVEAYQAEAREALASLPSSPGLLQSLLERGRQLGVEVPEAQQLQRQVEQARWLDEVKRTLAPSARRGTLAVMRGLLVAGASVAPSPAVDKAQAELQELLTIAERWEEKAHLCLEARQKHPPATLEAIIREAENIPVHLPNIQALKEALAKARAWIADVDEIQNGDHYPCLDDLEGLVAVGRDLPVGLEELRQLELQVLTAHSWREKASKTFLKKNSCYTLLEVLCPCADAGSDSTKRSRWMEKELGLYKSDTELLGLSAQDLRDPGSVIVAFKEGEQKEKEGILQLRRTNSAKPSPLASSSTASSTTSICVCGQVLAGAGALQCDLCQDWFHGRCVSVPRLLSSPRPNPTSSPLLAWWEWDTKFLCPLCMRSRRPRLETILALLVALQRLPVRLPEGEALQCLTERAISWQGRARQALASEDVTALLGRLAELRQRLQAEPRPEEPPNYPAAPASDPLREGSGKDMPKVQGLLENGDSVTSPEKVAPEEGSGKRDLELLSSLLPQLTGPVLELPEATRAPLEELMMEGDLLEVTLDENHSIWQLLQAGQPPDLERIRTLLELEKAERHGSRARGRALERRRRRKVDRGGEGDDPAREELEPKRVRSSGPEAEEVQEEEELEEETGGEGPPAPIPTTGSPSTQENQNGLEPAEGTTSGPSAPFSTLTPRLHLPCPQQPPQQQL

Work on `Cc1ccsc1C(NC(=O)c1ccccc1)c1cc(Cl)c2cccnc2c1O` (racemic) yielded an IC50 [1] of 178 µM, an IC50 [2] of 106 µM and an IC50 [3] of over 100 µM.

`CCCCCCCCOC(=O)c1ccc(O)c2ncccc12` gave an IC50 [4] of 3.9 µM, an IC50 [5] of over 100 µM and an IC50 [6] of over 100 µM. The IC50 (Egl nine homolog 1) was over 100 µM.

With `CCN(CCN(C)C)C(=O)CNCc1cc(CNC(=O)C(F)(F)F)ccn1` the EC50 [7] was under 0.25 µM and the EC50 [8] was under 0.25 µM.

`CCN(CCN(C)C)C(=O)CNCc1cc(C(=O)O)ccn1` gave an IC50 [9] of 1 µM.
